Data published in US12139542B2, “Inhibitors of aortic carboxypeptidase-like protein (ACLP)” (TRUSTEES OF BOSTON UNIVERSITY, priority 2014, dated 2024).

System: ACLP
Assay: siRNA knockdown of ACLP in differentiating primary lung fibroblasts (Western blot)
Type: cell-based, mouse
Details: primary lung fibroblasts transfected day 1 post-isolation, 2 nM siRNA, vs NTC siRNA
Protocol: siRNA. Differentiating primary lung fibroblasts were transfected with 2 nM small interfering RNA (siRNA) targeting ACLP (Dharmacon) ([…]) (SEQ ID NO: 5) on either day 1 or day 2 post-isolation. Fully differentiated primary lung myofibroblasts were transfected at passage 2 or 3 with 2 nM siRNA targeting ACLP. Non-targeting control (NTC) siRNA ([…], […], […], […]) (SEQ ID NO: 6) was used as a control in all experiments. Transfections were performed using RNAiMAX (Invitrogen) according to manufacturer's instructions.
Knockdown of ACLP slows and partially reverts the fibroblast to myofibroblast transition. To determine if ACLP was required for fibroblast to myofibroblast differentiation, siRNA was used to knockdown ACLP expression during myofibroblast differentiation. Freshly isolated wildtype primary lung fibroblasts were transfected on day 1 post-isolation with siRNA targeting ACLP (FIG. 2B) (3).

Sequence: GGCUCAAGAUCUACGCAAU (listed as RNA, chemistry not given here) [ACLP siRNA, small interfering RNA targeting mouse ACLP (Dharmacon)]
- reduction in ACLP protein expression: 68%
- reduction of Collagen I levels: 5%
- reduction in SMA protein expression (statistically significant): 63%
